From patent US11447525B2 (NIIGATA UNIVERSITY, priority 2018, dated 2022)
Entries after “also recorded” stand apart in the source; their conditions may differ. One block for each compound: values may come before it. Non-standard residues stand in square brackets, D forms with d. Residues, ends and D or L forms follow the SMILES beside them. No end group written: not given here. *: point of attachment. 5FAM = O=C1OC2(c3ccc(O)cc3Oc3cc(O)ccc32)c2ccc(C(=O)*)cc21; NMeR = CN[C@@H](CCCNC(=N)N)C(=O)O

Assays:
[1] = human blood plasma having a concentration of 50% by mass; conditions: up to 120 minutes
[2] = tested on: human pancreatic cancer growth and progression mouse model (subcutaneous and intraperitoneal human pancreatic cancer cell-transplanted); test: Selective absorption into tissues of human pancreatic cancer growth and progression mouse model, fluorescence signal (Test Examples 3, 4, Reference Example 2); assay type: in vivo, Balb/c nu/nu mouse; conditions: 200 μg intravenously, 30 minutes after injection
Experimental: Subsequently, 200 μg of each of the fluorescent labeled peptides prepared above in “1.” was injected intravenously into a human pancreatic cancer growth and progression mouse model (Balb/c nu/nu mouse, subcutaneous and intraperitoneal human pancreatic cancer cell-transplanted model). The pharmacokinetics of the peptide 30 minutes after the intravenous injection were then analyzed by tissue analysis of the freshly dissected specimen of the administered mouse, with the absorption quantified by detection of the fluorescence signal. […] In FIG. 9A, “sc tumor” is an abbreviation for “subcutaneous tumor”. In FIG. 9B, “abd tumor” is an abbreviation for “abdominal tumor”, indicating a tumor formed intraperitoneally. Further, “br” indicates the brain, “hr” indicates the heart, “kd” indicates the kidney, and “liv” indicates the liver. Furthermore, “liv. meta” is an abbreviation for “liver metastatic tumor”, and describes a tumor that has metastasized to the liver. Moreover, “panc” indicates the pancreas, and “sp” indicates the spleen. These same abbreviations are also used in subsequent figures. Furthermore, the term “untreated” in FIG. 9A indicates tissues resected from a mouse that was not administered with any fluorescent labeled peptide.
Specifically, first, either 27 μg or 200 μg of fluorescein was injected intravenously into a human pancreatic cancer growth and progression mouse model (Balb/c nu/nu mouse, subcutaneous and intraperitoneal human pancreatic cancer cell-transplanted model). The pharmacokinetics of the FLC 30 minutes after the intravenous injection were then analyzed by tissue analysis of the freshly dissected specimen of the administered mouse, with the absorption quantified by detection of the fluorescence signal.

[3] = tested on: pancreatic cancer cells (BxPC3, PK-8, AsPC1); test: Accumulation of FLC-labeled peptides in cells (Test Example 8); assay type: cell-based, human; conditions: 2 μM, 37° C., 2 hours
Experimental: Tests were conducted to confirm the accumulation of various peptides into each of the cells shown below in Table 13. Further, the peptides shown below in Table 14 were used.
Each peptide was added to each of the cells shown in Table 13 in an amount sufficient to achieve a final concentration in the medium of 2 μM, and following cultivation of the cells at 37° C. for 2 hours, the sample was washed 3 times with a medium containing no peptide to remove any peptide within the medium. Subsequently, the incorporation of each of the peptides into each of the cells was evaluated visually using an inverted fluorescence microscope. Prior to the microscopic examination, the culture supernatant to which the peptide had been added was removed, and following washing three times with 1×PBS (−), a trypsin treatment was conducted to remove the adherent cells, and the resultant was immediately transferred into a new 96-well plate and once again suspended in fresh culture solution before the microscopic examination was performed. In FIG. 23, “pep(−)” indicates the control cells to which no peptide was administered, and “single PCPP11” indicates cells to which FLC (fluorescein)-PCPP11 had been added. Further, “mal” indicates a maleimide group, with the peptide and the FLC bonded together by forming a covalent bond between the thiol group (—SH) of a cysteine residue and a maleimide group introduced into the FLC.

[4] = Degradation test by human blood plasma, MALDI-TOFMS analysis; assay type: in vitro ADME; conditions: for proportion of peak area relative to the total peak area in the MALDI-TOFMS analysis: FAM-L peptide added to 50% by mass human blood plasma
Experimental: Specifically, a peptide composed of the amino acid sequence represented by SEQ ID NO: 1 (hereafter sometimes referred to as “PCPP11”) was added to human blood plasma having a concentration of 50% by mass, the mixture was sampled immediately after starting the degradation test (after 0 minutes), and then after 5 minutes, after 10 minutes, after 20 minutes, after 30 minutes, after 60 minutes and after 120 minutes, and the samples were analyzed by MALDI-TOFMS (Matrix Assisted Laser Desorption/Ionization-Time Of Flight Mass Spectrometry). In Table 2, “UK” is an abbreviation for “unknown”. Further, the No. shown for each peptide in Table 2 corresponds with the numerical value recorded on the peaks of the graphs shown in FIG. 1.
Each of the peptides described above was added to human blood plasma having a concentration of 50% by mass, the resulting mixture was sampled immediately after starting the degradation test (after 0 minutes), and then after 5 minutes, after 10 minutes, after 20 minutes, after 30 minutes, after 60 minutes and after 120 minutes, and the samples were analyzed by MALDI-TOFMS. The results are shown in FIGS. 2 to 6 and Tables 4 to 6 shown below. Furthermore, the data for the degradation test by human blood plasma using PCPP11 from Reference Example 1 and the degradation tests by human blood plasma using each of the above peptides are collated in FIG. 7 and Table 7. The SEQ ID NO listed for the FAM-labeled peptide represents the SEQ ID NO of the peptide portion. Further, the No. shown for each peptide in Tables 4 to 6 corresponds with the numerical value recorded on the peaks of the graphs shown in FIGS. 2 to 6. In each table, in those cases where the numerical values are shown separated into an upper row and a lower row, the upper row value indicates the proportion (%) of peak area for two or more peptides relative to the total peak area in the MALDI-TOFMS analysis. On the other hand, the lower row value indicates the proportion (%) of each peptide when the peak area for the two or more peptides is deemed to be 100%. Moreover, for example, for the peptide No. 9 shown in Table 4, the left-side “70.0%” indicates the proportion (%) of the peptide No. 9 when the total peak area for the peptides No. 9 to 11 is deemed to be 100%, whereas the right-side “65%” indicates the proportion (%) of the peptide No. 9 relative to the total peak area in the MALDI-TOFMS analysis. This system is also used in the following tables.

Compound: RRPTTWHKP-G-pkhwttprr (H-RRPTTWHKPG[dP][dK][dH][dW][dT][dT][dP][dR][dR]-OH; N-terminus and C-terminus assumed; SMILES C[C@H](O)[C@@H](NC(=O)[C@@H](Cc1c[nH]c2ccccc12)NC(=O)[C@@H](Cc1c[nH]cn1)NC(=O)[C@@H](CCCCN)NC(=O)[C@H]1CCCN1C(=O)CNC(=O)[C@@H]1CCCN1C(=O)[C@H](CCCCN)NC(=O)[C@H](Cc1c[nH]cn1)NC(=O)[C@H](Cc1c[nH]c2ccccc12)NC(=O)[C@@H](NC(=O)[C@@H](NC(=O)[C@@H]1CCCN1C(=O)[C@H](CCCNC(=N)N)NC(=O)[C@@H](N)CCCNC(=N)N)[C@@H](C)O)[C@@H](C)O)C(=O)N[C@@H](C(=O)N1CCC[C@@H]1C(=O)N[C@H](CCCNC(=N)N)C(=O)N[C@H](CCCNC(=N)N)C(=O)O)[C@H](C)O)
fragment found [1]: RPTTWHKP-G-pkhwttprr, Start; also recorded: TTWHKP-G-pkhwttprr, Start

inhibitory performance on nonspecific absorption into untargeted normal organs [2]: satisfactorily maintained
absorption into pancreatic malignant tumors compared with the conventional PCPP11 ([2]; FIG. 11): approximately 6 fold
Compound: C[C@@H](O)[C@H](NC(=O)[C@@H](NC(=O)[C@@H]1CCCN1C(=O)[C@H](CCCNC(=N)N)NC(=O)[C@H](CCCNC(=N)N)NC(=O)CNC(=O)[C@@H]1CCCN1C(=O)[C@H](CCCCN)NC(=O)[C@H](Cc1c[nH]cn1)NC(=O)[C@H](Cc1c[nH]c2ccccc12)NC(=O)[C@@H](NC(=O)[C@@H](NC(=O)[C@@H]1CCCN1C(=O)[C@H](CCCNC(=N)N)NC(=O)[C@H](CCCNC(=N)N)NC(=O)CNC(=O)[C@@H]1CCCN1C(=O)[C@H](CCCCN)NC(=O)[C@H](Cc1c[nH]cn1)NC(=O)[C@H](Cc1c[nH]c2ccccc12)NC(=O)[C@@H](NC(=O)[C@@H](NC(=O)[C@@H]1CCCN1C(=O)[C@H](CCCNC(=N)N)NC(=O)[C@H](CCCNC(=N)N)NC(=O)c1ccc2c(c1)C(=O)OC21c2ccc(O)cc2Oc2cc(O)ccc21)[C@@H](C)O)[C@@H](C)O)[C@@H](C)O)[C@@H](C)O)[C@@H](C)O)C(=O)N[C@@H](Cc1c[nH]c2ccccc12)C(=O)N[C@@H](Cc1c[nH]cn1)C(=O)N[C@@H](CCCCN)C(=O)N1CCC[C@H]1C(=O)O [FAM-LLL] (5FAM-RRPTTWHKPGRRPTTWHKPGRRPTTWHKP-OH; C-terminus assumed)

Compound: R-mR-PTTWHKP-C(-[FLC])-RRPTTWHKP-G-RRPTTWHKP [NmL-Cys(-FLC)-LL]
fluorescence compared with FLC-PCPP11 [3]: stronger fluorescence
fluorescence detected in all of the pancreatic cancer cells [3]: particularly strong fluorescence

Compound: C[C@H](O)[C@@H](NC(=O)[C@@H](Cc1c[nH]c2ccccc12)NC(=O)[C@@H](Cc1c[nH]cn1)NC(=O)[C@@H](CCCCN)NC(=O)[C@H]1CCCN1C(=O)CNC(=O)[C@@H]1CCCN1C(=O)[C@H](CCCCN)NC(=O)[C@H](Cc1c[nH]cn1)NC(=O)[C@H](Cc1c[nH]c2ccccc12)NC(=O)[C@@H](NC(=O)[C@@H](NC(=O)[C@@H]1CCCN1C(=O)[C@H](CCCNC(=N)N)N(C)C(=O)[C@@H](N)CCCNC(=N)N)[C@@H](C)O)[C@@H](C)O)C(=O)N[C@@H](C(=O)N1CCC[C@@H]1C(=O)N[C@H](CCCNC(=N)N)C(=O)N[C@H](CCCNC(=N)N)C(=O)O)[C@H](C)O [No. 19, R-mR-PTTWHKP-G-pkhwttprr] (H-R[NMeR]PTTWHKPG[dP][dK][dH][dW][dT][dT][dP][dR][dR]-OH; N-terminus and C-terminus assumed)
degradation resistance compared with the stand-alone PCPP11 and the FAM-PCPP11 ([4]; 50% by mass human blood plasma): superior degradation resistance
degradation products observed ([4]; 50% by mass human blood plasma, within 120 minutes of starting the test): no degradation products were observed
inhibitory performance on nonspecific absorption into untargeted normal organs [2]: maintained satisfactorily
absorption into pancreatic malignant tumors relative to the Ld peptide ([2]; FIG. 12B): approximately 1.4 fold

Compound: [FLC]-R-mR-PTTWHKP-G-RRPTTWHKP [FLC-NmLL]
fluorescence compared with FLC-PCPP11 [3]: stronger fluorescence

Compound: RPTTWHKP-G-RRPTTWHKP-C(-[FLC])-RRPTTWHKP (RPTTWHKPGRRPTTWHKPC(fluorescein)RRPTTWHKP) [L(-R)L-Cys(-FLC)-L]
fluorescence compared with FLC-PCPP11 [3]: stronger fluorescence
fluorescence detected in all of the pancreatic cancer cells [3]: particularly strong fluorescence

Compound: R-mR-PTTWHKP-C(-[FLC])-RRPTTWHKP [NmL-Cys(-FLC)-L]
fluorescence compared with FLC-PCPP11 [3]: stronger fluorescence

Compound: RPTTWHKP-G-RRPTTWHKP-K(-[FLC])-RRPTTWHKP (RPTTWHKPGRRPTTWHKPK(fluorescein)RRPTTWHKP) [L(-R)L-Lys(-FLC)-L]
fluorescence compared with FLC-PCPP11 [3]: stronger fluorescence
fluorescence detected in all of the pancreatic cancer cells [3]: particularly strong fluorescence

remaining at 5 min ([4]; 50% by mass human blood plasma, 5 min, read-out: degradation resistance (proportion of the peptide retained without degradation)): 100%
remaining at 10 min ([4]; 50% by mass human blood plasma, 10 min, read-out: degradation resistance (proportion of the peptide retained without degradation)): 90%
remaining at 20 min ([4]; 50% by mass human blood plasma, 20 min, read-out: degradation resistance (proportion of the peptide retained without degradation)): 92%
remaining at 0.5 h ([4]; 50% by mass human blood plasma, 30 min, read-out: degradation resistance (proportion of the peptide retained without degradation)): 87%
remaining at 1 h ([4]; 50% by mass human blood plasma, 60 min, read-out: degradation resistance (proportion of the peptide retained without degradation)): 73%
degradation resistance (proportion of the peptide retained without degradation) ([4]; 50% by mass human blood plasma, Start): 100%
proportion of peak area relative to the total peak area in the MALDI-TOFMS analysis ([4]; 5 min): 47.2%
proportion of peak area relative to the total peak area in the MALDI-TOFMS analysis ([4]; 10 min): 43.2%
proportion of peak area relative to the total peak area in the MALDI-TOFMS analysis ([4]; 20 min): 45.6%
proportion of peak area relative to the total peak area in the MALDI-TOFMS analysis ([4]; 30 min): 43.6%
proportion of peak area relative to the total peak area in the MALDI-TOFMS analysis ([4]; 60 min): 37.4%
proportion of peak area relative to the total peak area in the MALDI-TOFMS analysis ([4]; 120 min): 13.5%
proportion of peak area relative to the total peak area in the MALDI-TOFMS analysis ([4]; Start): 47.6%
Compound: C[C@@H](O)[C@H](NC(=O)[C@@H](NC(=O)[C@@H]1CCCN1C(=O)[C@H](CCCNC(=N)N)NC(=O)[C@H](CCCNC(=N)N)NC(=O)c1ccc2c(c1)C(=O)OC21c2ccc(O)cc2Oc2cc(O)ccc21)[C@@H](C)O)C(=O)N[C@@H](Cc1c[nH]c2ccccc12)C(=O)N[C@@H](Cc1c[nH]cn1)C(=O)N[C@@H](CCCCN)C(=O)N1CCC[C@H]1C(=O)O [compound 13] (5FAM-RRPTTWHKP-OH; C-terminus assumed)

persistence time (the time of stable existence) ([4]; 50% by mass human blood plasma): less than 20 minutes
Compound: RRPTTWHKP [No. 1, reference compound]

Compound: RPTTWHKP-C(-[FLC])-RRPTTWHKP-C(-[FLC])-RRPTTWHKP [L(-R)-Cys(-FLC)-L-Cys(-FLC)-L]
fluorescence compared with FLC-PCPP11 [3]: stronger fluorescence
fluorescence detected in all of the pancreatic cancer cells [3]: particularly strong fluorescence
